The record followed here is patent publication US6861427B2, “Azabicyclylmethyl derivatives of 2,3-dihydro-1,4-dioxino[2,3-f]quinoline as 5-HT1A antagonists” (Wyeth, priority 2001, dated 2005).

As a reminder, the melting point is the temperature of the solid-liquid transition. By Ki is commonly meant a dissociation constant, usually derived from enzyme kinetics or from competition with a known ligand. In general, IC50 refers to the concentration that inhibits the measured activity by half.

Counter-ions that a name gives are not always drawn.

The target of series [1] is T1, human 5-HT1A receptors (Homo sapiens, UniProt P08908).
T1 construct: expressed in transfected cells; host or cells: CHO cells
T1 sequence (P08908 1-422): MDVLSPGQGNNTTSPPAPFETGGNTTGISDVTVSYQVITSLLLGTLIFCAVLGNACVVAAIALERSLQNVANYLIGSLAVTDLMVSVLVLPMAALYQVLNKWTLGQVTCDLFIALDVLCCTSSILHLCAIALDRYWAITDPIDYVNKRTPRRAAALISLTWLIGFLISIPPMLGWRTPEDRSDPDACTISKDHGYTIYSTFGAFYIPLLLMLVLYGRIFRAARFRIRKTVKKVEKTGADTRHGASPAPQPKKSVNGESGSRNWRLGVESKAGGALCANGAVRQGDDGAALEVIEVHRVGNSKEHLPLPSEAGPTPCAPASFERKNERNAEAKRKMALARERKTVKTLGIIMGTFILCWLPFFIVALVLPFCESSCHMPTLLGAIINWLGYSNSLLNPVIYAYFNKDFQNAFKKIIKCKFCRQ
The series is described as follows: [3H] 8-OH-DPAT displacement from the 5-HT1A serotonin receptor (CHO cells). The settings on record: displacement of [3H] 8-OH-DPAT, CHO cells stably transfected with human 5-HT1A receptors; read-out: 5-HT1A Receptor Affinity KI. The format is binding. The text has this:
High affinity for the serotonin 5-HT1A receptor was established by testing the claimed compound's ability to displace [^3H] 8-OH-DPAT (dipropylaminotetralin) from the 5-HT1A serotonin receptor following a modification of the procedure of Hall et al., J. Neurochem. 44, 1685 (1985) which utilizes CHO cells stably transfected with human 5-HT1A receptors.
(In general: Displacement assays read how much labelled ligand stays bound in the presence of the test substance.)

Series [2] has as its target T2, cloned human 5-HT1A receptors (Homo sapiens, UniProt P08908).
T2 construct: expressed in transfected cells
T2 sequence (P08908 1-422): T1 sequence (P08908 1-422)
The series is described as follows: 35S-GTPγS binding assay, antagonist activity versus 8-OH-DPAT. The format is biochemical. The following applies: reversal of 8-OH-DPAT-stimulated 35S-GTPγS binding; for IC50: membranes with cloned human 5-HT1A receptors, read-out: 5-HT1A Function IC50. Here is the method: Antagonist activity at 5-HT1A receptors was established by using a ^35S-GTPγS binding assay similar to that used by Lazareno and Birdsall (Br. J. Pharmacol. 109: 1120, 1993), in which the test compound's ability to affect the binding of ^35S-GTPγS to membranes containing cloned human 5-HT1A receptors was determined. Agonists produce an increase in binding whereas antagonists produce no increase but rather reverse the effects of the standard agonist 8-OH-DPAT. The test compound's maximum inhibitory effect is represented as the Imax, while its potency is defined by the IC50.

Compound `Cc1ccc2c3c(ccc2n1)OCC(CN1C2CCC1CC(O)(c1cccc(C(F)(F)F)c1)C2)O3` (stereo not shown) (as salt: fumarate) (hydrate or solvate) [Example 2, 8-{[8-Methyl-2,3-dihydro[1,4]dioxino[2,3-f]quinolin-2-yl]methyl}-3-[3-(trifluoromethyl)phenyl]-8-azabicyclo[3.2.1]octan-3-ol] returned a melting point of 146 to 150 °C.

For `Cc1ccc2c3c(ccc2n1)OCC(CN1C2CCC1CC(O)(c1ccc4ccccc4c1)C2)O3` (stereo not shown) (as salt: fumarate) (hydrate or solvate) [Example 3, 8-{[8-Methyl-2,3-dihydro[1,4]dioxino[2,3-f]quinolin-2-yl}methyl]-3-(2-naphthyl)-8-azabicyclo[3.2.1]octan-3-ol], the melting point lay within 218 to 218.5 °C.

On to `Cc1ccc2c3c(ccc2n1)OCC(CN1C2CCC1CC(O)(c1ccccc1)C2)O3` (stereo not shown) [Example 1, 8-{[8-Methyl-2,3-dihydro[1,4]dioxino[2,3-f]quinolin-2-yl]methyl}-3-phenyl-8-azabicyclo[3.2.1]octan-3-ol], for which the melting point lay in the range of 162 to 165 °C. In series [1], the Ki is 2.59 nM. In series [2], the “5-HT1A Function Imax (maximum inhibitory effect)” value was “(98.0)” and the IC50 was 6.85 nM.

As to `Cc1ccc2c3c(ccc2n1)OCC(CN1C2CCC1CC(O)(c1cccc(C(F)(F)F)c1)C2)O3` (stereo not shown) [Example 2, 8-{[8-Methyl-2,3-dihydro[1,4]dioxino[2,3-f]quinolin-2-yl]methyl}-3-[3-(trifluoromethyl)phenyl]-8-azabicyclo[3.2.1]octan-3-ol], the inhibitory constant (Ki) in series [1] was determined as 6.81 nM.

Take `Cc1ccc2c3c(ccc2n1)OCC(CN1C2CCC1CC(O)(c1ccc4ccccc4c1)C2)O3` (stereo not shown) [Example 3, 8-{[8-Methyl-2,3-dihydro[1,4]dioxino[2,3-f]quinolin-2-yl}methyl]-3-(2-naphthyl)-8-azabicyclo[3.2.1]octan-3-ol]: the Ki in series [1] was determined as 3.45 nM. Also, in series [2], the “5-HT1A Function Imax (maximum inhibitory effect)” value is given as “(100)” and the IC50 amounted to 55.5 nM.
